The assay concerns the target T1, BACE 1 (Homo sapiens, UniProt P56817).
T1 construct: soluble (transmembrane domain and cytoplasmic extension excluded) human protein; made in house; host or cells: baculovirus expression system (insect cells implied)
Nature of the assay: ECL Assay: homogeneous end point electrochemiluminescence assay with biotinylated BACE substrate. The conditions noted are these: soluble human enzyme, pH 6.5. It counts as biochemical. As to the method: Enzyme inhibition is determined as follows.
ECL Assay: A homogeneous end point electrochemiluminescence (ECL) assay is performed using a biotinylated BACE substrate. […] A typical reaction contains approximately 0.6 nM enzyme, 0.25 μM of the substrate, and buffer (50 mM Pipes, pH 6.5, 0.1 mg/ml BSA, 0.2% CHAPS, 15 mM EDTA and 1 mM deferoxamine) in a total reaction volume of 100 μl. […] To measure the inhibitory potency for compounds, 10 concentrations of inhibitors are prepared starting from 200 μM with three fold series dilution. Solutions of the inhibitor in DMSO are included in the reaction mixture (final DMSO concentration is 10%). All experiments are conducted at […] using the standard reaction conditions described above. To determine the IC50 of the compound, a four parameter equation is used for curve fitting.

The source of these data is US8354545B2, “3,4-substituted pyrrolidine beta-secretase inhibitors for the treatment of alzheimer's disease” (Merck, Sharp & Dohme, Corp., priority 2007, dated 2013).

T1 sequence (P56817 46-457 limits assumed): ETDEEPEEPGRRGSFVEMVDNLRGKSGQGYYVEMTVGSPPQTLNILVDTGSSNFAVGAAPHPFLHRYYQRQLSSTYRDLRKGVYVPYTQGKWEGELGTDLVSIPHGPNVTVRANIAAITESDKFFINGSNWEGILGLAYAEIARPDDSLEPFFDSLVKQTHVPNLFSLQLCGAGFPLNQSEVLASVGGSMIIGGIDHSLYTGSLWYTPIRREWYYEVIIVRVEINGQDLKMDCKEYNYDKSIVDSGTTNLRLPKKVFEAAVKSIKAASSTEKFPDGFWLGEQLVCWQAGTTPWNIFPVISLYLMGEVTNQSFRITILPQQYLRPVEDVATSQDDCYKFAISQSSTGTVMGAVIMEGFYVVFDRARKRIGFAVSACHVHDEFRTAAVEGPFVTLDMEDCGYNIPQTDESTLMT

Take `O=C([C@@H]1CNC[C@H]1c1ccccc1Br)N1CCCC1Cc1ccccc1` (stereo partly drawn) [Example 8, 2-benzyl-1-{[(3S,4R)-4-(2-bromophenyl)pyrrolidin-3-yl]carbonyl}pyrrolidine]: half-maximal inhibition (IC50) was put at 67 µM.
The same measure for `CCOc1ccc(-c2ccccc2[C@@H]2CNC[C@H]2C(=O)N2CCOC[C@@H]2c2ccccc2)cc1` [Example 12]: 18 µM; for `O=C([C@@H]1CNC[C@H]1c1ccccc1Br)N1CCC2(C=Cc3ccccc32)CC1` [Example 38, 1-{[(3S,4R)-4-(2-bromophenyl)pyrrolidin-3-yl]carbonyl}spiro[indene-1,4′-piperidine]]: 19 µM.
The same measure for `CS(=O)(=O)c1ccc(-c2ccccc2[C@@H]2CNC[C@H]2C(=O)N2CCC3(C=Cc4ccccc43)CC2)cc1` [Example 64]: 3 µM.
As for `CS(=O)(=O)c1ccc(-c2ccccc2[C@@H]2CNC[C@H]2C(=O)N2CCC(c3ccccc3)CC2c2ccccc2)cc1` (stereo partly drawn) [Example 76, 1-({(3S,4R)-4-[4′-(methylsulfonyl)biphenyl-2-yl]pyrrolidin-3-yl}carbonyl)-2,4-diphenylpiperidine], the figure is 3.5 µM; as for `O=C([C@@H]1CNC[C@H]1c1ccccc1Br)N1CCC2(C=Cc3ccccc32)CC1c1ccccc1` (stereo partly drawn) [Example 79, 1′-{[(3S,4R)-4-(2-bromophenyl)pyrrolidin-3-yl]carbonyl}-2′-phenylspiro[indene-1,4′-piperidine]], 1.8 µM.
As to `CS(=O)(=O)c1ccc(-c2ccccc2[C@@H]2CNC[C@H]2C(=O)N2CCC3(C=Cc4ccccc43)CC2c2ccccc2)cc1` (stereo partly drawn) [Example 83, 1′-({(3S,4R)-4-(4′-(methylsulfonyl)biphenyl-2-yl]pyrrolidin-3-yl}carbonyl)-2′-phenylspiro-[indene-1,4′-piperidine]], the midpoint of inhibition, the IC50, lay at 0.38 µM.
